Reference: patent US12178825B2, “Method and compositions for forming a copper-containing complex and uses thereof” (COLD SPRING HARBOR LABORATORY, priority 2017, dated 2024)
“Also recorded” adds a separate entry of the source.

Legend:
[1] = system: triple-negative breast cancer (TNBC) cell lines; assay: MTT cell survival, triple-negative breast cancer cell lines; type: cell-based
Description: (§1) The MTT assay was used to evaluate cell survival in the absence and presence of different compounds. The thiazolyl blue tetrazolium bromide (MTT) was dissolved in phosphate buffered saline (PBS) at a concentration of 5 mg/ml, filtered, and stored at 4° C. About 10,000 cells were seeded into a 96-well plate and cultured in growth medium containing serum. After 24 hours, cells were treated with the indicated concentrations of DPM-1001 or DPM-1003 (0-100 uM) for 2 hrs. Following which 20 μl MTT was added into each well. An ELISA plate reader (Biotek, Winooski, Vermont, USA) was used to measure the optical density at 490 nm.

MDA-MB-231 cells = assay: MDA-MB-231 orthotopic xenograft; type: in vivo, SCID-beige mice; conditions: mice with TNBC xenograft, 5 mg/kg intraperitoneally every day
Description: MDA-MB-231 cells (2×10^6) were injected orthotopically into mammary fat pads of SCID-beige mice (Tectonic lab) in 15 μl of a 1:1 mixture with DMEM and growth factor-reduced Matrigel (BD Biosciences). The animals were randomly assigned to three groups to receive saline (control), DPM-1001 (5 mg/kg) or DPM-1003 (5 mg/kg) intraperitoneally everyday once the tumors reached about 200 mm^3. Tumor growth was monitored every third day and volume in mm^3 was measured three times weekly by palpation using the formula: volume=width^2×length/2. Once the tumor volume reached above 500 mm^3 in saline treated mice, the study was terminated. Tumors from all mice were removed for biochemical analysis.

PTP1B = PTP1B (Homo sapiens, UniProt P18031); assay: PTP1B inhibition (Ki); type: biochemical
[2] = Direct copper-binding assay with radiolabelled copper
Description: Direct binding assays were performed using radiolabelled copper (64 Cu^2+). Varying concentration of radiolabeled copper (0-100 nM) was incubated with DPM-1001 (100 nM). Excess copper was removed by running the samples through a desalting column. The amount of metal bound to the compound was quantitated directly by scintillation counting. For assays with the protein, His-tagged PTP1B (100 nM) was incubated with varying concentrations of Cu-DPM-1001 complex for 60 min in assay buffer (50 mM Hepes, 100 mM NaCl, 0.1% BSA pH 6.5) at 25° C. Protein-bound and free compound were separated by incubating the protein-inhibitor mixture with 50 μl of 50% Ni-NTA beads for 10 min at 25° C. The beads were washed with assay buffer containing 150 mM NaCl and 25 mM Imidazole three times, and the inhibitor bound to protein was determined by scintillation counting. The amount of bead-bound protein was estimated by BCA protein quantification.
Direct binding assays were performed using radiolabelled copper (64 Cu^2+). […] The amount of metal bound to the compound was quantitated directly by scintillation counting. […] The inhibitor bound to protein was determined by scintillation counting. The amount of bead-bound protein was estimated by BCA protein quantification. For protein quantitation the bead bound protein was precipitated with TCA (25% final) on ice for 30 minutes. […]

TX mice = assay: Tissue and fecal copper levels (ICP-MS, rhodanine staining); type: in vivo, mouse; conditions: TX mice, ICP-MS
Description: C3He-Atp7b^tx-j were obtained from the Jackson laboratory. All animal experiments were performed according to protocols approved by the Institutional Animal Use and Care Committee of Cold Spring Harbor laboratory. Mice were injected intraperitoneally (i.p.) with vehicle, or administered DPM-1001 intraperitoneally or orally at 5 mg/kg once every third day, for over a year. At the end of the study animals were euthanized and tissue samples were removed for biochemical studies.
Tissue samples from wild-type or TX mice treated with saline, DPM-1001 or tetrathiomolybdate was washed three times with PBS containing 1 mM EDTA (to remove nonspecifically bound copper). Then, 215 μl of concentrated nitric acid (BDH Aristar Ultra) was added to each sample and incubated overnight. Samples were boiled at 95° C. for 1 h. and approximately 150 μl of each sample was further diluted in 2 ml 2% nitric acid (made freshly from concentrated nitric acid and Milli-Q water) Samples were analyzed on a Thermo Fisher iCAP Qc ICP mass spectrometer in kinetic energy discrimination (KED) mode against a calibration curve of known copper and phosphorus concentrations, with Ga (20 μg/l, Inorganic Ventures) as an internal standard, Each experiment was carried out twice and each condition was repeated in at least triplicate.
Liver tissues from wild-type and TX mice from untreated and DPM-1001-treated mice were sectioned and stained with H&E or rhodanine. Whole-slide, digitized images of H&E-stained tissue were captured using the Aperio ScanScope XT automated scanning system (Vista, CA). Image J software was used to quantitate rhodanine staining.

TNBC cells = assay: Cellular copper levels by ICP-MS; type: cell-based
Description: TNBC cells (1×10^6) were plated in a 10-cm culture dish in growth medium. About 24 h after seeding cells, they were untreated or treated with DPM-1001 (2 uM) or DPM-1003 (2 uM) for 2 h. Following which, cells were washed three times with PBS. Then, 215 μl of concentrated nitric acid (BDH Aristar Ultra) was added to each sample and incubated overnight. Samples were boiled at 95° C. for 1 h. and approximately 150 μl of each sample was further diluted in 2 ml 2% nitric acid (made freshly from concentrated nitric acid and Milli-Q water). Samples were analyzed on a Thermo Fisher iCAP Qc ICP mass spectrometer in kinetic energy discrimination (KED) mode against a calibration curve of known copper and phosphorus concentrations, with Ga (20 μg/l, Inorganic Ventures) as an internal standard. Each experiment was carried out twice and each condition was repeated in at least triplicate.

[3] = ESI-MS analysis of complex formation with a series of other metal ions; type: binding; conditions: panel of metals
Description: Eight equivalents of M(NO3)2·xH2O or MSO4·xH2O were reacted with 1 eq. of DPM-1001, DPM-1003 or analog 2 (1 mM in H2O). The reaction solutions were stirred at RT, 40° C. and 80° C. for 2 h. Each sample was diluted 5-fold in 50% methanol, 0.1% formic acid and loaded into a 500 μL syringe. A Thermo Vantage triple quadrupole mass spectrometer (Thermo Scientific), equipped with an HESI spray source was coupled to an Accela HPLC system (Thermo Scientific). Mobile phase A consisted of 0.1% formic acid and mobile phase B consisted of 0.1% formic acid in methanol. Isocratic flow was set to 50% B at 200 μL/min. 200 μl samples were injected into the LC flow line via syringe pump at 10 μL/min and electrosprayed into the Vantage triple quadrupole mass spectrometer. A spray voltage of 4.3 kV was used along with a capillary temperature of 350° C. Each full MS scan was 0.5 s and data were collected with a scan range of 200 m/z to 900 m/z over 1 min.

non-TNBC cell lines = assay: MTT cell survival, non-TNBC cell lines; type: cell-based
Description: as §1

Chain of PTP1B (P18031 whole entry, species assumed): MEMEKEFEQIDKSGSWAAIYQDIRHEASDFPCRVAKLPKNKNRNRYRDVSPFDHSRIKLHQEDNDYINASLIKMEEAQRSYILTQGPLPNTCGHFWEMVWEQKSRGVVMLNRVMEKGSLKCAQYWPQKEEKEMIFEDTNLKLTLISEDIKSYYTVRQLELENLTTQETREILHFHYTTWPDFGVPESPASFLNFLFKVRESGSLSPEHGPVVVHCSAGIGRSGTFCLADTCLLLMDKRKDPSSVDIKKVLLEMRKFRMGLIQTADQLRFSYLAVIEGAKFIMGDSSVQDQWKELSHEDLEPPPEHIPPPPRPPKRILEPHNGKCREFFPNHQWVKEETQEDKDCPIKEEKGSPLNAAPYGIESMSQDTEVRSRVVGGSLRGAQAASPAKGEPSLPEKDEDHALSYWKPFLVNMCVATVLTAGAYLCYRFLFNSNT

SMILES: COC(=O)CCC(C)C1CCC2C3C(O)CC4CC(NCCCCNCc5cccnc5)CCC4(C)C3CCC12C (centres unmarked) [DPM-1003]
- survival of triple-negative breast cancer cells [1]: did not affect survival; also recorded: does not inhibit the survival
- tumor volume / tumor size (MDA-MB-231 cells): without effect; also recorded: not by DPM-1003; also recorded: did not reduce tumor size or inhibit tumor growth
- Ki (PTP1B): 2000 nM
- binding to copper (in words) [2]: does not bind copper with high affinity; also recorded: limited binding; also recorded: does not bind with high affinity to or form a complex with copper
- copper levels in liver and brain (TX mice): did not affect levels of copper in liver tissue; also recorded: did not suppress the levels of the metal in liver
- cellular copper levels (TNBC cells): does not reduce copper levels
- complex formation with other metals [3]: limited binding
- survival of non-TNBC cell lines, DPM-1001 versus DPM-1003 (non-TNBC cell lines): did not differ from each other
